How the values were obtained:
[1] = Biodistribution in healthy Swiss Albino mice after intravenous injection; assay type: in vivo; settings: i.v.
Method: The pharmacokinetic profile of complexes 5b and 7b was evaluated in Swiss Albino healthy male mice at 5, 60, and 240 min post intravenous injection. Table 4 presents the results of the biodistribution studies expressed as % Injected Dose (ID)/g ± Standard Deviation (±SD). […] The high lipophilicity characterizing both complexes justifies the rapid hepatobiliary excretion, given the decreasing activity in the liver and the increasing amount of radioactivity in the intestines. Complex 5b presented faster clearance and elimination in the intestines at 60 min p.i. 34.05% of the radioactivity excreted, compared to 29.89% at 240 min p.i. of complex 7b. Radioactivity in the urine remained low in general, however, the lower logD7.4 value of complex 7b explains the relatively higher activity in the urines (7.88 ± 0.71%) as it is slightly more hydrophilic than 5b. Moreover, the low uptake in the brain indicates almost no blood-brain barrier penetration, although the complexes have favorable physicochemical characteristics.
All the biodistribution experiments were carried out in compliance with the national laws and European protocols (2010/63/EU) related to the conduct of animal experimentation. Nine healthy Swiss Albino mice (male, 30 ± 3 g), divided into three groups of three, were injected with the HPLC-purified 5b or 7b complex in saline with 10% EtOH (0.1 mL, ~75 kBq) through the tail vein. For each group, the animals were sacrificed by cardiectomy under slight ether anesthesia 5, 60, and 240 min after the injection. The organs of interest were excised, weighed, and counted in an automatic gamma counter. The bladder and excreted urine were not weighed. The stomach and intestines were not emptied of food contents prior to radioactivity measurements. The percentage of injected dose per organ (%ID/organ) was calculated by comparison of sample radioactivity to standard solutions containing 10% of the injected dose. The calculation for blood and muscle was based on measured activity, sample weight, and body composition data (considering that blood and muscle comprise 7 and 43% of body weight). The percentage of injected dose per gram (%ID/g) was calculated by dividing the %ID/organ by the weight of the organ or tissue.

[2] = Cysteine and histidine challenge of 99mTc complexes (RP-HPLC); assay type: physicochemical
Method: (§1) The stability of complexes 5b and 7b was studied in their reaction mixture and after isolation by HPLC for up to 24 h.
Cysteine and histidine challenge: Histidine (100 µL, 1 × 10^−2 M) or cysteine (100 µL, 1 × 10^−2 M) solution in 0.1 M PBS was mixed with 100 µL (50–120 MBq) of the RP-HPLC isolated ^99mTc complexes in 0.1 M PBS (800 µL). The mixtures were incubated at 37 °C for up to 24 h and analyzed by RP-HPLC at 1, 6, and 24 h intervals.

[3] = Lipophilicity, shake-flask distribution coefficient; assay type: physicochemical; settings: n-octanol/0.1 M phosphate buffer pH 7.4
Method: The pharmacokinetic profile of the studied compounds could be affected by their lipophilicity, expressed as the logarithm of the distribution coefficient (log Do/w). The lipophilicity of complexes 5b and 7b was determined in physiological conditions (n-octanol/0.1 M phosphate buffer pH 7.4). […] The presence of the pyridine ring in the chemical structure of complex […] increases the log D7.4 value, as expected.
The distribution coefficient of the 5b and 7b complexes was determined with the shake-flask method. The RP-HPLC isolated ^99mTc complexes (20 μL, ~75 kBq) were mixed with 2 mL of 1-octanol and 2 mL of phosphate buffer solution (PBS, 0.1 M, pH 7.4) in a centrifuge tube. The mixture was vortexed at room temperature for 2 min and centrifuged at 5000 rpm for 10 min. The radioactivity of each phase (200 μL) was counted in a gamma counter. The distribution coefficient was calculated by dividing the cpm/mL in the 1-octanol phase by those in the buffer, and the results were expressed as logD7.4. Each experiment was run in triplicate.

[4] = Stability of 99mTc complexes in reaction mixture and after isolation in PBS (RP-HPLC); assay type: physicochemical
Method: as §1
Stability of ^99mTc complexes in the reaction mixture: Samples of the ^99mTc complexes’ reaction mixture were stored at room temperature for up to 24 h. At 1, 6, and 24 h intervals, 100 μL of each sample was removed and analyzed by RP-HPLC.
Stability of isolated ^99mTc complexes: Purification and isolation of 5b and 7b complexes were performed by injection of the reaction mixture into RP-HPLC and isolation of the eluted compounds’ peaks, corresponding to the elution time of each complex. Followingly, 0.1 M PBS buffer solution (900 µL) was added to a vial containing 100 µL (50–120 MBq) of the isolated technetium-99m complex. The sample was incubated at 37 °C for up to 24 h and analyzed by RP-HPLC at 1, 6, and 24 h intervals.

## O=C([O-])CN(CCCCCC(=O)Nc1ccc2ncnc(Nc3cccc(Br)c3)c2c1)Cc1ccccn1.[99Tc+].[C-]#[O+].[C-]#[O+].[C-]#[O+] [Compound 5b, fac-[^99mTc(NNO)(CO)3]]
[1]
  In vivo stability (low spleen and stomach radioactivity; no oxidation to pertechnetate/TcO2): stable in vivo
[1]; 5 min
  Blood %Injected Dose/g: 0.85 ± 0.23 %Injected Dose/g
  Brain %Injected Dose/g: 0.05 ± 0.02 %Injected Dose/g
  Heart %Injected Dose/g: 0.80 ± 0.12 %Injected Dose/g
  Intestines %Injected Dose/g: 9.22 ± 2.19 %Injected Dose/g
  Kidneys %Injected Dose/g: 8.49 ± 1.33 %Injected Dose/g
  Liver %Injected Dose/g: 27.68 ± 2.32 %Injected Dose/g
  Lungs %Injected Dose/g: 0.97 ± 0.20 %Injected Dose/g
  Muscle %Injected Dose/g: 0.19 ± 0.05 %Injected Dose/g
  Pancreas %Injected Dose/g: 0.63 ± 0.09 %Injected Dose/g
  Spleen %Injected Dose/g: 0.63 ± 0.09 %Injected Dose/g
  Stomach %Injected Dose/g: 0.72 ± 0.25 %Injected Dose/g
  Urine % ID: 0.09 ± 0.06 % ID
[1]; 60 min
  Blood %Injected Dose/g: 0.14 ± 0.03 %Injected Dose/g
  Brain %Injected Dose/g: 0.03 ± 0.00 %Injected Dose/g
  Heart %Injected Dose/g: 0.13 ± 0.03 %Injected Dose/g
  Intestines %Injected Dose/g: 34.05 ± 2.05 %Injected Dose/g
  Kidneys %Injected Dose/g: 1.28 ± 0.17 %Injected Dose/g
  Liver %Injected Dose/g: 1.24 ± 0.24 %Injected Dose/g
  Lungs %Injected Dose/g: 0.13 ± 0.03 %Injected Dose/g
  Muscle %Injected Dose/g: 0.08 ± 0.01 %Injected Dose/g
  Pancreas %Injected Dose/g: 0.10 ± 0.03 %Injected Dose/g
  Spleen %Injected Dose/g: 0.11 ± 0.01 %Injected Dose/g
  Stomach %Injected Dose/g: 0.64 ± 0.27 %Injected Dose/g
  Urine % ID: 1.02 ± 0.17 % ID
[1]; 240 min
  Blood %Injected Dose/g: 0.08 ± 0.01 %Injected Dose/g
  Brain %Injected Dose/g: 0.02 ± 0.00 %Injected Dose/g
  Heart %Injected Dose/g: 0.05 ± 0.01 %Injected Dose/g
  Intestines %Injected Dose/g: 37.28 ± 3.50 %Injected Dose/g
  Kidneys %Injected Dose/g: 0.06 ± 0.01 %Injected Dose/g
  Liver %Injected Dose/g: 0.39 ± 0.08 %Injected Dose/g
  Lungs %Injected Dose/g: 0.08 ± 0.01 %Injected Dose/g
  Muscle %Injected Dose/g: 0.07 ± 0.07 %Injected Dose/g
  Pancreas %Injected Dose/g: 0.09 ± 0.00 %Injected Dose/g
  Spleen %Injected Dose/g: 0.07 ± 0.02 %Injected Dose/g
  Stomach %Injected Dose/g: 0.60 ± 0.18 %Injected Dose/g
  Urine % ID: 1.33 ± 0.14 % ID
[2]; 24 h, molar ratio 1/1000, HPLC
  Stability after incubation with excess of histidine and cysteine: > 95%
[2]; excess cysteine, 37 °C
  %RCP in Cysteine for 24 h: 99 ± 1%
[2]; excess histidine, 37 °C
  %RCP in Histidine for 24 h: 99 ± 1%
[3]
  log D7.4: 3.27 ± 0.25
[4]; 0.1 M PBS, 37 °C, 24 h
  %RCP in PBS for 24 h: 99 ± 2%
[4]; up to 24 h, room temperature or 37 °C
  Stability in reaction mixture and after isolation by HPLC: No decomposition
